According to patent US10118930B2, “Piperidinylpyrazolopyrimidinones and their use” (BAYER PHARMA AKTIENGESELLSCHAFT, priority 2015, dated 2018):
Structures can show the parent of a compound that is named as a salt.

tested on: clot lysis (fibrinolysis) in diluted human citrated plasma, tPA-induced; test: Plasma-based clot lysis assay (5%); type: biochemical; conditions: human citrated platelet-poor plasma 5%, fibrinogen 3 μM, CaCl2 10 mM, tPA 0.2 nM, 37° C., OD at 405 nm
Procedure: B-2. Plasma-based Clot Lysis Assay (5%)
The clot-lysis test system configures the kinetics of clot formation and degradation in vitro and allows quantifying modulation of the process by selected test compounds.
The test compounds were dissolved in 1% acetic acid and further complemented with an equal volume of DMSO. The resulting stock solutions were serially diluted in 0.5% acetic acid/50% DMSO. 1 μL aliquots of these solutions were placed into 384 well microplates (Greiner, black, transparent bottom), followed by 30 μL of diluted human citrated plasma (platelet-poor, final concentration: 5%; supplemented with fibrinogen, final concentration: 3 μM; dilution buffer: 20 mM HEPES, 150 mM NaCl, 0.01% Brij (pH 7)). The reactions were started by addition of 20 μL of CaCl2 (final concentration: 10 mM), and tPA (tissue plasminogen activator, final concentration: 0.2 nM) in dilution buffer, followed by an additional volume of 20 μL dilution buffer for improved mixing. The reactions were incubated at 37° C. […] IC50 values were determined by comparing the resulting time courses with the time course of a blank control reaction.

Row | Compound | IC50 [nM]
1 | CCCOC(=O)c1c(C)nn2c(C3CCNCC3)cc(=O)[nH]c12 [Example 365, Propyl 2-methyl-5-oxo-7-(piperidin-4-yl)-4,5-dihydropyrazolo[1,5-a]pyrimidine-3-carboxylate hydrochloride] | 38
2 | O=C1CCN(C(=O)c2cnn3c(C4CCNCC4)cc(=O)[nH]c23)CCN1 [Example 100, 3-[(5-oxo-1,4-diazepan-1-yl)carbonyl]-7-(piperidin-4-yl)pyrazolo[1,5-a]pyrimidin-5(4H)-one hydrochloride] | 110
3 | NCc1noc(-c2cnn3c(C4CCNCC4)cc(=O)[nH]c23)n1 [Example 212, 3-[3-(aminomethyl)-1,2,4-oxadiazol-5-yl]-7-(piperidin-4-yl)pyrazolo[1,5-a]pyrimidin-5 (4H)-one hydrochloride] | 58
4 | O=c1cc(C2CCNCC2)n2ncc(-c3nc(Cc4cccc(C(F)(F)F)c4)no3)c2[nH]1 [Example 222, 7-(piperidin-4-yl)-3-{3-[3-(trifluoromethyl)benzyl]-1,2,4-oxadiazol-5-yl}pyrazolo[1,5-a]pyrimidin-5(4H)-one hydrochloride] | 37
5 | Cc1nn2c(C3CCNCC3)cc(=O)[nH]c2c1C(=O)N(C)C [Example 319, N,N,2-trimethyl-5-oxo-7-(piperidin-4-yl)-4,5-dihydropyrazolo[1,5-a]pyrimidine-3-carboxamide hydrochloride] | 75
6 | Cc1nn2c(C3CCNCC3)cc(=O)[nH]c2c1C(=O)N1Cc2ccccc2C1 [Example 410, 3-(1,3-dihydro-2H-isoindol-2-ylcarbonyl)-2-methyl-7-(piperidin-4-yl) pyrazolo[1,5-a] pyrimidin-5(4H)-one hydrochloride] | 45
7 | Cn1cncc1-c1nnc(-c2cnn3c(C4CCNCC4)cc(=O)[nH]c23)o1 [Example 168, 3-[5-(1-methyl-1H-imidazol-5-yl)-1,3,4-oxadiazol-2-yl]-7-(piperidin-4-yl)pyrazolo[1,5-a]pyrimidin-5(4H)-one hydrochloride] | 33
8 | NC(=O)CCNC(=O)c1cnn2c(C3CCNCC3)cc(=O)[nH]c12 [Example 89, N-(3-amino-3-oxopropyl)-5-oxo-7-(piperidin-4-yl)-4,5-dihydropyrazolo[1,5-a]pyrimidine-3-carboxamide hydrochloride] | 140
9 | O=c1cc(C2CCNCC2)n2ncc(-c3cccc(-c4ccc(C(F)(F)F)cc4)c3)c2[nH]1 [Example 162, 7-(piperidin-4-yl)-3-[4′-(trifluoromethyl)biphenyl-3-yl]pyrazolo[1,5-a]pyrimidin-5(4H)-one hydrochloride] | 140
10 | O=c1cc(C2CCNCC2)n2ncc(-c3noc(-c4ccc(C(F)(F)F)cc4Cl)n3)c2[nH]1 [Example 232, 3-{5-[2-chloro-4-(trifluoromethyl)phenyl]-1,2,4-oxadiazol-3-yl}-7-(piperidin-4-yl)pyrazolo[1,5-a]pyrimidin-5(4H)-one hydrochloride] | 71
11 | O=c1cc(C2CCNCC2)n2ncc(-c3noc(Cc4ccccc4)n3)c2[nH]1 [Example 228, 3-(5-benzyl-1,2,4-oxadiazol-3-yl)-7-(piperidin-4-yl)pyrazolo[1,5-a]pyrimidin-5(4H)-one hydrochloride] | 33
12 | Cc1nn2c(C3CCNCC3)cc(=O)[nH]c2c1C(=O)N1CCc2ccccc21 [Example 412, 3-(2,3-dihydro-1H-indol-1-ylcarbonyl)-2-methyl-7-(piperidin-4-yl) pyrazolo[1,5-a] pyrimidin-5(4H)-one hydrochloride] | 33
13 | CC(F)(F)COC(=O)c1cnn2c(C3CCNCC3)cc(=O)[nH]c12 [Example 463, 2,2-difluoropropyl 5-oxo-7-(piperidin-4-yl)-4,5-dihydropyrazolo[1,5-a]pyrimidine-3-carboxylate hydrochloride] | 51
14 | O=c1cc(C2CCNCC2)n2ncc(-c3nc(-c4ccco4)no3)c2[nH]1 [Example 110] | 82
15 | NC(=S)c1cnn2c(C3CCNCC3)cc(=O)[nH]c12 [Example 287, 5-oxo-7-(piperidin-4-yl)-4,5-dihydropyrazolo[1,5-a]pyrimidine-3-carbothioamide hydrochloride] | 37
16 | O=c1cc(C2CCNCC2)n2ncc(-c3nc(-c4ccc(C(F)(F)F)cc4C(F)(F)F)no3)c2[nH]1 [Example 152, 3-{3-[2,4-Bis(trifluoromethyl)phenyl]-1,2,4-oxadiazol-5-yl}-7-(piperidin-4-yl)pyrazolo[1,5-a]pyrimidin-5(4H)-one hydrochloride] | 43
17 | CC1CCCN(C(=O)c2cnn3c(C4CCNCC4)cc(=O)[nH]c23)C1C (stereo not drawn) [Example 104, 3-[(2,3-dimethylpiperidin-1-yl)carbonyl]-7-(piperidin-4-yl)pyrazolo[1,5-a]pyrimidin-5(4H)-one hydrochloride] | 31
18 | O=C(OCCCF)c1cnn2c(C3CCNCC3)cc(=O)[nH]c12 [Example 352, 3-fluoropropyl 5-oxo-7-(piperidin-4-yl)-4,5-dihydropyrazolo[1,5-a]pyrimidine-3-carboxylate hydrochloride] | 44
19 | O=C(O)c1c(C(F)(F)F)nn2c(C3CCNCC3)cc(=O)[nH]c12 [Example 457, 5-oxo-7-(piperidin-4-yl)-2-(trifluoromethyl)-4,5-dihydropyrazolo[1,5-a]pyrimidine-3-carboxylic acid hydrochloride] | 85

These reach a lower IC50. Values come first.

Row | IC50 [nM] | Compound
20 | 11 | O=C(c1cnn2c(C3CCNCC3)cc(=O)[nH]c12)C1CCCC1 [Example 451, 3-(cyclopentylcarbonyl)-7-(piperidin-4-yl)pyrazolo[1,5-a]pyrimidin-5(4H)-one hydrochloride]
21 | 20 | COc1ccc(C(C)(C)c2nc(-c3cnn4c(C5CCNCC5)cc(=O)[nH]c34)no2)cc1 [Example 242, 3-{5-[2-(4-methoxyphenyl)propan-2-yl]-1,2,4-oxadiazol-3-yl}-7-(piperidin-4-yl)pyrazolo[1,5-a]pyrimidin-5(4H)-one hydrochloride]
22 | 11 | CCc1csc(-c2cnn3c(C4CCNCC4)cc(=O)[nH]c23)n1 [Example 308, 3-(4-ethyl-1,3-thiazol-2-yl)-7-(piperidin-4-yl)pyrazolo[1,5-a]pyrimidin-5(4H)-one hydrochloride]
23 | 27 | O=c1cc(C2CCNCC2)n2ncc(-c3nnc(-c4cccs4)o3)c2[nH]1 [Example 288, 7-(piperidin-4-yl)-3-[5-(thiophen-2-yl)-1,3,4-oxadiazol-2-yl]pyrazolo[1,5-a]pyrimidin-5 (4H)-one hydrochloride]
24 | 28 | O=C(OCC(F)F)c1cnn2c(C3CCNCC3)cc(=O)[nH]c12 [Example 353, 2,2-difluoroethyl 5-oxo-7-(piperidin-4-yl)-4,5-dihydropyrazolo[1,5-a]pyrimidine-3-carboxylate hydrochloride]
25 | 23 | O=c1cc(C2CCNCC2)n2ncc(-c3nc(-c4ccccc4F)no3)c2[nH]1 [Example 159, 3-[3-(2-fluorophenyl)-1,2,4-oxadiazol-5-yl]-7-(piperidin-4-yl)pyrazolo[1,5-a]pyrimidin-5(4H)-one hydrochloride]
26 | 30 | O=c1cc(C2CCNCC2)n2ncc(-c3nc(Cc4ccc(Cl)c(Cl)c4)no3)c2[nH]1 [Example 213, 3-[3-(3,4-dichlorobenzyl)-1,2,4-oxadiazol-5-yl]-7-(piperidin-4-yl)pyrazolo[1,5-a]pyrimidin-5 (4H)-one hydrochloride]
27 | 30 | Cn1nccc1-c1cnn2c(C3CCNCC3)cc(=O)[nH]c12 [Example 375, 3-(1-methyl-1H-pyrazol-5-yl)-7-(piperidin-4-yl)pyrazolo[1,5-a]pyrimidin-5(4H)-one hydrochloride]
28 | 30 | O=c1cc(C2CCNCC2)n2ncc(-c3nc(-c4ccccc4OC(F)F)cs3)c2[nH]1 [Example 337, 3-{4-[2-(difluoromethoxy)phenyl]-1,3-thiazol-2-yl}-7-(piperidin-4-yl)pyrazolo[1,5-a]pyrimidin-5(4H)-one hydrochloride]
29 | 29 | CC1(c2nc(-c3cnn4c(C5CCNCC5)cc(=O)[nH]c34)no2)CC1 (racemic) [Example 381, Rac-3-[5-(1-Methylcyclopropyl)-1,2,4-oxadiazol-3-yl]-7-(piperidin-4-yl)pyrazolo[1,5-a]pyrimidin-5(4H)-one hydrochloride]
30 | 21 | O=c1cc(C2CCNCC2)n2ncc(-c3ccc(C(F)(F)F)cc3)c2[nH]1 [Example 57, 7-(Piperidin-4-yl)-3-[4-(trifluoromethyl)phenyl]pyrazolo[1,5-a]pyrimidin-5(4H)-one hydrochloride]
31 | 15 | Cc1ccc(-c2nc(-c3cnn4c(C5CCNCC5)cc(=O)[nH]c34)no2)cc1 [Example 220, 3-[5-(4-methylphenyl)-1,2,4-oxadiazol-3-yl]-7-(piperidin-4-yl)pyrazolo[1,5-a]pyrimidin-5 (4H)-one hydrochloride]
32 | 22 | CCCCCCc1nc(-c2cnn3c(C4CCNCC4)cc(=O)[nH]c23)no1 [Example 379, 3-(5-Hexyl-1,2,4-oxadiazol-3-yl)-7-(piperidin-4-yl)pyrazolo[1,5-a]pyrimidin-5(4H)-one hydrochloride]
33 | 28 | O=c1cc(C2CCNCC2)n2ncc(-c3nc(C(O)c4ccccc4)no3)c2[nH]1 (stereo not drawn) [Example 238, 3-{3-[hydroxy(phenyl)methyl]-1,2,4-oxadiazol-5-yl}-7-(piperidin-4-yl)pyrazolo[1,5-a]pyrimidin-5(4H)-one hydrochloride]
